Reference: PMC10073911, “N-Arylacetamide derivatives of methyl 1,2-benzothiazine-3-carboxylate as potential drug candidates for urease inhibition” (Royal Society Open Science, 2023)
Several values for one entry are separate records, joined by “and”; a condition that tells them apart may be missing. Identical values can stand only once. Like-named read-outs stand apart in the source and are kept apart here.

Key:
urease = urease (Canavalia ensiformis, UniProt P07374); assay: biochemical; settings: indophenol method, urea substrate 100 mM, absorbance at 630 nm, triplicate
Chain of urease (P07374 whole entry, looked up): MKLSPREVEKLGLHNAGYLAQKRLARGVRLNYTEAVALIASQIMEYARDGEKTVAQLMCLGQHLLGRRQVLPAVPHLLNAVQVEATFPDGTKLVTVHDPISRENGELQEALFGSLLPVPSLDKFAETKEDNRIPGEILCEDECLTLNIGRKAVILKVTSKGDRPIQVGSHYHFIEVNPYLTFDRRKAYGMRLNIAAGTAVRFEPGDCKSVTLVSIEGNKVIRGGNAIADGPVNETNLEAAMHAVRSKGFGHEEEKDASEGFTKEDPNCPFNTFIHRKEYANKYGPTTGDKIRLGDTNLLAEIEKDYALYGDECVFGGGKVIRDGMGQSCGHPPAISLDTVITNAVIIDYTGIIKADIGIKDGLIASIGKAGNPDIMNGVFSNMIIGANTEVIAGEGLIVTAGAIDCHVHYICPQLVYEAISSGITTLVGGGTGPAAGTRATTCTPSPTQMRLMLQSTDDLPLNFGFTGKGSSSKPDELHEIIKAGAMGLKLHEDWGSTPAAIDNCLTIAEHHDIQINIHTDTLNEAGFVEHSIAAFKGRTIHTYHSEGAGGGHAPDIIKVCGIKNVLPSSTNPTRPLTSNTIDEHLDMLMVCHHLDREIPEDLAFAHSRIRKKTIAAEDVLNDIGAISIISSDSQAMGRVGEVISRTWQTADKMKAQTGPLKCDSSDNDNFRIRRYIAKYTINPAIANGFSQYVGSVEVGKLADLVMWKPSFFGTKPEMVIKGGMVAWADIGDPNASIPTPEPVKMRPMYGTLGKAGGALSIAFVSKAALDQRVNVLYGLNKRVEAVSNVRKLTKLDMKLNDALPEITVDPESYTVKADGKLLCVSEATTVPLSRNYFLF

[1] = urease inhibition IC50 ± s.e.m.
[2] = read-out: urease inhibition IC50 ± s.e.m.

Compound	IC50 (urease; [1])	melting point [°C]	IC50 (urease; [2]) [µM]
COC(=O)C1=C(O)c2ccccc2S(=O)(=O)N1CC(=O)Nc1ccccc1 [5a, Methyl 4-hydroxy-2-(2-oxo-2-(phenylamino)ethyl)-2H-benzo[e][1,2]thiazine-3-carboxylate 1,1-dioxide]	10.1 ± 0.9 µM	188 to 190	–
COC(=O)C1=C(O)c2ccccc2S(=O)(=O)N1CC(=O)Nc1ccccc1OC [5b, Methyl 4-hydroxy-2-(2-((2-methoxyphenyl)amino)-2-oxoethyl)-2H-benzo[e][1,2]thiazine-3-carboxylate 1,1-dioxide]	14.9 ± 1.5 µM	–	–
COC(=O)C1=C(O)c2ccccc2S(=O)(=O)N1CC(=O)Nc1ccccc1C [5c, Methyl 4-hydroxy-2-(2-oxo-2-(o-tolylamino)ethyl)-2H-benzo[e][1,2]thiazine-3-carboxylate 1,1-dioxide]	17.2 ± 1.1 µM	172 to 174	–
COC(=O)C1=C(O)c2ccccc2S(=O)(=O)N1CC(=O)Nc1ccccc1C(=O)OC [5d, Methyl 4-hydroxy-2-(2-((2-(methoxycarbonyl)phenyl)amino)-2-oxoethyl)-2H-benzo[e][1,2]thiazine-3-carboxylate 1,1-dioxide]	14.1 ± 0.12 µM	178 to 180	–
COC(=O)C1=C(O)c2ccccc2S(=O)(=O)N1CC(=O)Nc1cccc(OC)c1 [5e, Methyl 4-hydroxy-2-(2-((3-methoxyphenyl)amino)-2-oxoethyl)-2H-benzo[e][1, 2]thiazine-3-carboxylate 1,1-dioxide]	–	–	18.2 ± 1.69
COC(=O)C1=C(O)c2ccccc2S(=O)(=O)N1CC(=O)Nc1cccc(C)c1 [5f, Methyl 4-hydroxy-2-(2-oxo-2-(m-tolylamino)ethyl)-2H-benzo[e][1,2]thiazine-3-carboxylate 1,1-dioxide]	15.5 ± 1.35 µM	192 to 194	–
COC(=O)C1=C(O)c2ccccc2S(=O)(=O)N1CC(=O)Nc1ccc(OC)cc1 [5g, Methyl 4-hydroxy-2-(2-((4-methoxyphenyl)amino)-2-oxoethyl)-2H-benzo[e][1,2]thiazine-3-carboxylate 1,1-dioxide]	20.4 ± 1.81 µM	176 to 178	–
COC(=O)C1=C(O)c2ccccc2S(=O)(=O)N1CC(=O)Nc1ccc(C)cc1 [5h, Methyl 4-hydroxy-2-(2-oxo-2-(p-tolylamino)ethyl)-2H-benzo[e][1,2]thiazine-3-carboxylate 1,1-dioxide]	16.4 ± 1.4 µM	–	–
COC(=O)C1=C(O)c2ccccc2S(=O)(=O)N1CC(=O)Nc1ccc(Cl)cc1 [5i, Methyl 2-(2-((4-chlorophenyl)amino)-2-oxoethyl)-4-hydroxy-2H-benzo[e][1,2]thiazine-3-carboxylate 1,1-dioxide]	20.7 ± 0.25 µM	–	–
COC(=O)C1=C(O)c2ccccc2S(=O)(=O)N1CC(=O)Nc1ccc([N+](=O)[O-])cc1 [5j, Methyl 4-hydroxy-2-(2-((4-nitrophenyl)amino)-2-oxoethyl)-2H-benzo[e][1,2]thiazine-3-carboxylate 1,1-dioxide]	17.1 ± 1.45 µM	192 to 194	–
CCOC(=O)c1ccc(NC(=O)CN2C(C(=O)OC)=C(O)c3ccccc3S2(=O)=O)cc1 [5k, Methyl 2-(2-((4-(ethoxycarbonyl)phenyl)amino)-2-oxoethyl)-4-hydroxy-2H-benzo[e][1,2]thiazine-3-carboxylate 1,1-dioxide]	9.8 ± 0.023 µM	–	–
COC(=O)C1=C(O)c2ccccc2S(=O)(=O)N1CC(=O)Nc1ccc(NC(C)=O)cc1 [5l, Methyl 2-(2-((4-acetamidophenyl)amino)-2-oxoethyl)-4-hydroxy-2H-benzo[e][1,2]thiazine-3-carboxylate 1,1-dioxide]	12.6 ± 0.1 µM	–	–
COC(=O)C1=C(O)c2ccccc2S(=O)(=O)N1CC(=O)Nc1cccc(Cl)c1Cl [5m, Methyl 2-(2-((2,3-dichlorophenyl)amino)-2-oxoethyl)-4-hydroxy-2H-benzo[e][1,2]thiazine-3-carboxylate 1,1-dioxide]	14 µM and 14.1 µM	154 to 156	–
COC(=O)C1=C(O)c2ccccc2S(=O)(=O)N1CC(=O)Nc1ccc(Cl)cc1Cl [5n, Methyl 2-(2-((2,4-dichlorophenyl)amino)-2-oxoethyl)-4-hydroxy-2H-benzo[e][1,2]thiazine-3-carboxylate 1,1-dioxide]	13 µM and 13.1 µM	–	–
NC(N)=S [thiourea, reference compound]	–	–	22.3 ± 0.031
